The text below walks through data of patent US7947668B2, “Aminoalkyl sterol compounds having an anti-tumoral and neuroprotective activity” (Institut National de la Sante et de la Recherche Medicale, priority 2002, dated 2011).

B1: IL-4: interleukin-4, cytokine (protein, UniProt P05112 25-153, looked up)
Interleukin-4: HKCDITLQEIIKTLNSLTEQKTLCTELTVTDIFAASKNTTEKETFCRAATVLRQFYSHHEKDTRCLGATAQQFHRHKQLIRFLKRLDRNLWGLAGLNSCPVKEANQSTLENFLERLKTIMREKYSKCSS

The subject of the first experiment is P19 cells. The experiment is described as follows: Neuritogenesis on mouse P19 cells. It is filed as cell-based. The note with it: dose of 10 nM; after 12 hours of treatment. Here is the method:
The P19 cells are derived from a mouse embryonic carcinoma. They are pluripotent cells, which can change into neurones or into glial cells by treatment with retinoic acid (J. Cell. Biol. 1982 August, 94 (2): pp. 253-262) and can differentiate into muscle cells in the presence of dimethyl sulfoxide (Nature 1982-9 September, 299(58 79): pp. 165-167).
The P19 cells are cultured in the presence of an “RPMI 1640” culture medium sold by the company “Gibco BRL”, this medium being supplemented with 2 mM of glutamine and 4% by weight of fetal calf serum. They are inoculated at low density (10 000 cells per 60-mm well). The P19 cells are treated with the compound of example 6; they are then observed by phase-contrast microscopy. […]
Turning to `CC(C)[C@H](C)CC[C@@H](C)[C@H]1CC[C@H]2[C@@H]3C[C@@H](NCCCNCCCCNCCCN)[C@@]4(O)C[C@@H](O)CC[C@]4(C)[C@H]3CC[C@]12C` [Example 43, campestane-3β,5α-diol-6β-N-[N,N′-bis(aminopropyl)butane-1,4-diamine]], the “change in morphology of P19 cells toward dendrites” value is recorded as “same observations”.
For the molecule `CC(C)CCC[C@@H](C)[C@H]1CC[C@H]2C3=C[C@@H](NCCCCNCCCN)[C@@]4(O)C[C@@H](O)CC[C@]4(C)[C@H]3CC[C@]12C` [Example 6, cholest-7-ene-3β,5α-diol-6β-N-[1-N-1-(3-aminopropyl)butane-1,4-diamine]], the “change in morphology of P19 cells toward dendrites” value was “formation of dendrites”.
Same read-out and setting: then `CC(C)CCC[C@@H](C)[C@H]1CC[C@H]2[C@@H]3C[C@@H](NCCCNCCCCNCCCN)[C@@]4(O)C[C@@H](O)CC[C@]4(C)[C@H]3CC[C@]12C` [Example 5, cholestane-3β,5α-diol-6β-N-[N,N′-bis(3-aminopropyl)butane-1,4-diamine]], with “same observations”; and `CC[C@H](CC[C@@H](C)[C@H]1CC[C@H]2[C@@H]3C[C@@H](NCCCCNCCCN)[C@@]4(O)C[C@@H](O)CC[C@]4(C)[C@H]3CC[C@]12C)C(C)C` [Example 44, sitostane-3β,5α-diol-6β-N-[1-N1-(3-aminopropyl)butane-1,4-diamine]], with “same observations”.
Same read-out and setting: then `CC(C)CCC[C@@H](C)[C@H]1CC[C@H]2C3=C[C@@H](NCCCNCCCCNCCCN)[C@@]4(O)C[C@@H](O)CC[C@]4(C)[C@H]3CC[C@]12C` [Example 7, cholest-7-ene-3β,5α-diol-6β-N-[N,N′-bis(3-aminopropyl)butane-1,4-diamine]], with “same observations”; and `CC(C)[C@H](C)CC[C@@H](C)[C@H]1CC[C@H]2[C@@H]3C[C@@H](NCCCCNCCCN)[C@@]4(O)C[C@@H](O)CC[C@]4(C)[C@H]3CC[C@]12C` [Example 45, campestane-3β,5α-diol-6β-N-[1-N-1-(3-aminopropyl)butane-1,4-diamine]], with “same observations”; and `CC(C)CCC[C@@H](C)[C@H]1CC[C@H]2[C@@H]3C[C@@H](NCCCCNCCCN)[C@@]4(O)C[C@@H](O)CC[C@]4(C)[C@H]3CC[C@]12C` [Example 4, cholestane-3β,5α-diol-6β-N-[1-N1-(3-aminopropyl)butane-1,4-diamine]], with “same observations”.
Same read-out and setting: then `CC[C@H](CC[C@@H](C)[C@H]1CC[C@H]2[C@@H]3C[C@@H](NCCCNCCCCNCCCN)[C@@]4(O)C[C@@H](O)CC[C@]4(C)[C@H]3CC[C@]12C)C(C)C` [Example 42, sitostane-3β,5α-diol-6β-N-[N,N′-bis(aminopropyl)butane-1,4-diamine]], with “same observations”.

A further experiment has as its system PC12 cells. The experiment is described as follows: Neuritogenesis on PC12 cells. The note with it: dose of 10 nM, action time 36 hours. It is filed as cell-based. Here is the method:
The PC12 cells were cultured at an initial density of 1.5×10^5 cells/ml in RPMI 1640 medium supplemented with 10% fetal calf serum and 5% horse serum. The base of the culture dishes is treated with a 0.1 wt % polylysine or collagen solution in order to cause adhesion of the cells. The supernatant cells are removed after 12 hours and then treated with or without nerve growth factor (NGF) at 10 ng/ml, with or without the compound of example 6 or of example 7. The cells are observed by phase-contrast microscopy.
The PC12 cells treated by means of the compound of example 6 were treated at a dose of 10 nM, the action time of the compound being 36 hours.
Regarding `CC(C)CCC[C@@H](C)[C@H]1CC[C@H]2C3=C[C@@H](NCCCCNCCCN)[C@@]4(O)C[C@@H](O)CC[C@]4(C)[C@H]3CC[C@]12C` [Example 6, cholest-7-ene-3β,5α-diol-6β-N-[1-N-1-(3-aminopropyl)butane-1,4-diamine]], the “change in morphology of PC12 cells toward dendrites” value was “formation of dendrites”.

In a further experiment the test system is U-937 cells. The experiment is described as follows: Production of IL-12p70 and IL-10 by the dendritic cells (ELISA). It counts as cell-based, human. The note with it: treatments extending over a period of two weeks. Here is the method: The culture supernatants are frozen at a temperature of −80° C. until the time of testing for the presence of cytokines. The presence of IL-12p70 and IL-10 is measured using ELISA kits obtained from “Endogen” (Woburn, Mass., USA).
This phenomenon continues for the two weeks of treatment.
Consider “campestane-3β,5α-diol-6β-N-{[2-(1H-imidazol-4-yl)ethyl]ethylamine} [Example 47]”, for which the “transcription/production of IL-10” value was “same observations”.
On the same count and under the same terms, under “sitostane-3β,5α-diol-6β-N-{[2-(1H-imidazol-4-yl)ethyl]ethylamine} [Example 46]” stands “same observations”.

Another experiment relates to C57BL/6 mouse spleen monocytes. The experiment is described as follows: Dendritogenesis on C57BL/6 mouse spleen monocytes. It is filed as cell-based. The note with it: dose of 1 nM, 36 hours after the start of action. Here is the method:
1) On C57BL/6 Mouse Spleen Monocytes
5-week-old mice are sacrificed by cervical dislocation. They are then dissected. The spleens are removed under sterile conditions and then placed in a cold solution (4° C.) containing serum-free culture medium supplemented with antibiotics (streptomycin and penicillin). The spleens are ground in a sterile fume cupboard and then filtered through a 100 μm filter. The eluate is recovered and then centrifuged at 1000 rpm for 5 minutes at 4° C. The cell pellet is resuspended in phosphate-buffered saline (PBS) solution containing […], the purpose of which is to lyze the red blood cells. The suspension is centrifuged at 1000 rpm and the cells are then resuspended in PBS. The washing operation is performed twice. The final resuspension is performed in whole culture medium, and the cells are counted and distributed into six-well dishes at a density of 40 000 cells/ml. Four hours later, the adhering cells are washed vigorously with PBS in order to remove the cells that might remain attached to the adhering cells or to the culture dish.
The conversion was obtained with a dose of 1 nM, the photograph having been taken 36 hours after the start of action of the product. The test product is that of example 9. The appearance of cellular extensions is observed, which is one of the main characteristics of activated dendritic cells.
Take `CC(C)CCC[C@@H](C)[C@H]1CC[C@H]2[C@@H]3C[C@@H]4O[C@@]45C[C@@H](O)CC[C@]5(C)[C@H]3CC[C@]12C` [epoxy-cholesterol derivative, 5,6-α-epoxycholestan-3β-ol, reference compound]: the “morphological changes on the mouse monocytes, conversion into dendritic cells” value is recorded as “ineffective”.
Same read-out and setting: under `CC(C)CCC[C@@H](C)[C@H]1CC[C@H]2[C@@H]3CC=C4C[C@@H](O)CC[C@]4(C)[C@H]3CC[C@]12C` [cholesterol, reference compound] stands “ineffective”.
Still for that read-out and setting: under `NCCc1c[nH]cn1` [amine, 2-(1H-imidazol-4-yl)ethylamine, reference compound] stands “ineffective”; under “GM-CSF: cytokine used with IL-4 to differentiate monocytes into dendritic cells”, “ineffective”.
Still for that read-out and setting: then B1, with “ineffective”.
